Results as given in patent publication US10947188B2, “Small molecule ferroptosis inducers” (THE TRUSTEES OF COLUMBIA UNIVERSITY IN THE CITY OF NEW YORK, priority 2016, dated 2021).

System: HT-1080
Assay: Modulatory profiling: Alamar Blue viability, lethal compound cotreated with death modulator (EC50, AUC)
Type: cell-based
Parameters: AUC, modulator HT.3MA / AUC, modulator HT.ALLN / AUC HT.ATA / AUC HT.ActD / AUC HT.BHA / AUC HT.BHT / AUC HT.BocD / AUC HT.CHX / AUC HT.Co2+ / AUC HT.DPQ / AUC HT.EGTA / AUC HT.Lmim / AUC HT.NAD+ / AUC HT.Nec-1 / AUC HT.SP600125 / AUC HT.TLCK / AUC HT.U0126: unit not given beside the values
Conditions: for AUC HT.ATA: HT-1080, modulator ATA; for AUC HT.ActD: HT-1080, modulator ActD; for AUC HT.BHA: HT-1080, modulator BHA; for AUC HT.BHT: HT-1080, modulator BHT; for AUC HT.BocD: HT-1080, modulator BocD; for AUC HT.CHX: HT-1080, modulator CHX; for AUC HT.Co2+: HT-1080, modulator Co2+; for AUC HT.CspA: HT-1080, modulator CspA; for AUC HT.DPQ: HT-1080, modulator DPQ; for AUC HT.EGTA: HT-1080, modulator EGTA; for AUC HT.Gd3+: HT-1080, modulator Gd3+; for AUC HT.LNAME: HT-1080, modulator LNAME; for AUC HT.Lmim: HT-1080, modulator Lmim; for AUC HT.NAD+: HT-1080, modulator NAD+; for AUC HT.NMMA: HT-1080, modulator NMMA; for AUC HT.Nec-1: HT-1080, modulator Nec-1; for AUC HT.Pepstatin: HT-1080, modulator Pepstatin; for AUC HT.SP600125: HT-1080, modulator SP600125; for AUC HT.TLCK: HT-1080, modulator TLCK; for AUC HT.U0126: HT-1080, modulator U0126; for HT.atoc (AUC) / HT.bCarotene (AUC) / HT.deferox (AUC) / HT.digoxin (AUC) / HT.trolox (AUC) / HT.zVAD (AUC): HT-1080; for HT.atoc (AUC): modulator atoc; for HT.bCarotene (AUC): modulator bCarotene; for HT.deferox (AUC): modulator deferox; for HT.digoxin (AUC): modulator digoxin; for HT.trolox (AUC): modulator trolox; for HT.zVAD (AUC): modulator zVAD; for AUC, modulator HT.3MA / AUC, modulator HT.ALLN: HT-1080 cells, modulatory profile value (AUC); for AUC, modulator HT.3MA: lethal compound cotreated with modulator 3MA; for AUC, modulator HT.ALLN: lethal compound cotreated with modulator ALLN

SMILES	AUC HT.ATA	AUC HT.ActD	AUC HT.BHA	AUC HT.BHT	AUC HT.BocD	AUC HT.CHX	AUC HT.Co2+	AUC HT.CspA	AUC HT.DPQ	AUC HT.EGTA	AUC HT.Gd3+	AUC HT.LNAME	AUC HT.Lmim	AUC HT.NAD+	AUC HT.NMMA	AUC HT.Nec-1	AUC HT.Pepstatin	AUC HT.SP600125	AUC HT.TLCK	AUC HT.U0126	also measured
CC(/C=C/C(=O)NO)=C\[C@@H](C)C(=O)c1ccc(N(C)C)cc1 [TrichostatinA]	−0.0004817	−0.1678	−0.06956	−0.1352	0.04109	−0.09696	−0.02771	−0.1437	−0.001553	−0.01711	−0.003398	0.003502	−0.05021	0.03432	0.004335	−0.07289	−0.003985	−0.06865	−0.02599	−0.06468	HT.atoc (AUC): −0.005062; HT.bCarotene (AUC): −0.03472; HT.deferox (AUC): −0.1597; HT.digoxin (AUC): −0.1261; HT.trolox (AUC): −0.03382; HT.zVAD (AUC): 0.04012; AUC, modulator HT.3MA: −0.1241; AUC, modulator HT.ALLN: −0.1481
CC(C)[C@@H]1NC(=O)[C@H](C)OC(=O)[C@@H](C(C)C)NC(=O)[C@@H](C(C)C)OC(=O)[C@H](C(C)C)NC(=O)[C@H](C)OC(=O)[C@@H](C(C)C)NC(=O)[C@@H](C(C)C)OC(=O)[C@H](C(C)C)NC(=O)[C@H](C)OC(=O)[C@@H](C(C)C)NC(=O)[C@@H](C(C)C)OC1=O [Vatinomycin]	0.04039	0.0779	−0.01263	−0.05233	0.01496	0.1024	−0.06183	−0.03789	0.1702	−0.04483	−0.004524	−0.03843	0.1163	0.07833	−0.002681	0.08394	0.0197	−0.161	0.02961	0.005482	HT.atoc (AUC): 0.2292; HT.bCarotene (AUC): −0.01526; HT.deferox (AUC): 0.004145; HT.digoxin (AUC): −0.1615; HT.trolox (AUC): 0.04463; HT.zVAD (AUC): −0.05753; AUC, modulator HT.3MA: −0.1653; AUC, modulator HT.ALLN: 0.04228
CC[C@]1(O)C[C@@H]2CN(CCc3c([nH]c4ccccc34)[C@@](C(=O)OC)(c3cc4c(cc3OC)N(C)[C@H]3[C@@](O)(C(=O)OC)[C@H](OC(C)=O)[C@]5(CC)C=CCN6CC[C@]43[C@@H]65)C2)C1 [Vinbiastine]	0.09963	0.05584	−0.01651	0.01379	0.1256	0.06309	0.2269	−0.1335	0.003688	0.01055	−0.002557	−0.01231	0.126	0.1682	−0.003516	−0.005874	−0.0004474	0.002862	0.002362	0.1372	HT.atoc (AUC): 0.1573; HT.bCarotene (AUC): 0.001945; HT.deferox (AUC): 0.2847; HT.digoxin (AUC): 0.1245; HT.trolox (AUC): −0.001959; HT.zVAD (AUC): 0.08924; AUC, modulator HT.3MA: 0.05249; AUC, modulator HT.ALLN: 0.1527
CC[C@]1(O)C[C@H]2CN(CCc3c([nH]c4ccccc34)[C@@](C(=O)OC)(c3cc4c(cc3OC)N(C=O)[C@H]3[C@@](O)(C(=O)OC)[C@H](OC(C)=O)[C@]5(CC)C=CCN6CC[C@]43[C@@H]65)C2)C1 [Vincristine]	0.1304	0.05976	−0.004754	−0.01568	0.1401	0.08269	0.217	−0.1876	0.01267	0.009231	−0.0009641	0.001779	0.1155	0.1699	0.004831	0.02188	0.000262	0.0008998	−0.006394	0.1926	HT.atoc (AUC): 0.01853; HT.bCarotene (AUC): 0.01182; HT.deferox (AUC): 0.3217; HT.digoxin (AUC): 0.142; HT.trolox (AUC): −0.01599; HT.zVAD (AUC): 0.1172; AUC, modulator HT.3MA: 0.0299; AUC, modulator HT.ALLN: 0.1869
CCOc1ccccc1-n1c(C(C)N2CCN(C(=O)COc3ccc(Cl)cc3)CC2)nc2ccccc2c1=O (centres unmarked) [erastin, reference compound]	−0.1315	−0.1111	0.1748	0.1243	−0.003341	0.05504	−0.2142	0.02449	0.05672	0.01444	−0.01326	−0.008731	0.2178	−0.02996	0.006826	−0.02551	−0.02573	−0.03688	0.1167	0.1525	HT.atoc (AUC): 0.2643; HT.bCarotene (AUC): −0.0215; HT.deferox (AUC): 0.3025; HT.digoxin (AUC): −0.03393; HT.trolox (AUC): 0.2077; HT.zVAD (AUC): −0.07207; AUC, modulator HT.3MA: −0.04578; AUC, modulator HT.ALLN: −0.06856
